Broadly, the IC50 is the concentration at which inhibition is half-maximal. In general, EC50 refers to the concentration at which the effect is half-maximal.

Data on 19 compounds can be found in patent US12590062B2, “PD-1/PD-L1 inhibitors” (Gilead Sciences, Inc., priority 2017, dated 2026).

Bounds are passed on as bounds.

For one assay, the target named is PD-1/PD-L1 (Homo sapiens, UniProt Q9NZQ7). Put plainly: PD-1/PD-L1 biochemical protein-protein interaction assay (ALPHA). Type of assay: binding. The following applies: 0.3 nM His tagged PD-L1, 2.5 nM biotinylated Fc-PD-1, 60 minutes at 25° C., read-out: IC50 PD-L1-PD-1 Alpha IC50-mono PD-L1-fcP-D1. An outline of the steps: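 Compounds are tested for blocking the PD-1/PD-L1 extracellular-domain interaction using an ALPHA bead assay, in which inhibition lowers the luminescent signal. Reactions run 60 min at 25° C with 0.3 nM His-PD-L1 and 2.5 nM biotinylated Fc-PD-1. IC50 values come from four-parameter fits.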

A further assay deals with T1, PD-1/PD-L1 interaction (Homo sapiens, UniProt Q9NZQ7).
T1 construct: expressed in transfected cells; host or cells: CHO cells (aAPC-PD-L1) co-cultured with Jurkat cells overexpressing PD-1 and an NFAT-luciferase reporter
Put plainly: PD-1/PD-L1 NFAT reporter co-culture assay. It is filed as cell-based. The note with it: Jurkat PD-1 NFAT-luciferase cells co-cultured with aAPC-PD-L1 CHO cells, 6 hrs at 37° C.; read-out: EC50 NFAT Luciferase. An outline of the steps:
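Jurkat cells overexpressing PD-1 with NFAT-luciferase mixed with compounds and plated onto CHO aAPCs expressing anti-CD3 and PD-L1, RPMI with 2% FBS. Co-culture 6 h at 37 °C; luminescence read with ONE-Glo. EC50 from four-parameter fit.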

T1 sequence (Q9NZQ7 19-290): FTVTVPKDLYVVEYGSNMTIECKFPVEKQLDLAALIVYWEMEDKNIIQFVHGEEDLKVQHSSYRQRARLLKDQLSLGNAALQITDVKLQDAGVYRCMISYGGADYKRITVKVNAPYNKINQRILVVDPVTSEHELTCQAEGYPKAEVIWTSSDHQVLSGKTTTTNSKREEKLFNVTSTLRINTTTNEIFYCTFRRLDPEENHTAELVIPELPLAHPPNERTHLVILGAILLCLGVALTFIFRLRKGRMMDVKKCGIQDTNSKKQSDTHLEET
Sequence of PD-1/PD-L1 (Q9NZQ7 19-238 limits assumed): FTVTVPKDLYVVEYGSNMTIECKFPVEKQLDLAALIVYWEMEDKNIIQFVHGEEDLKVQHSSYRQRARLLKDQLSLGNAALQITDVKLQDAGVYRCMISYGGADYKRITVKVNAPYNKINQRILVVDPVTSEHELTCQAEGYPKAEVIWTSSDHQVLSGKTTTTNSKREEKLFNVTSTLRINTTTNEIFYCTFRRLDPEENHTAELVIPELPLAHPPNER

On to `COc1nc(OCc2cccc(-c3cccc(COc4ccc(CNCCO)c(OC)n4)c3C#N)c2C)ccc1CNCCO` [Example 72, 3,3′-bis(((5-(((2-hydroxyethyl)amino)methyl)-6-methoxypyridin-2-yl)oxy)methyl)-2′-methyl-[1,1′-biphenyl]-2-carbonitrile], for which the concentration for half-maximal inhibition (IC50) on PD-1/PD-L1 was 8 nM. Further, the EC50 on PD-1/PD-L1 interaction is 2510 nM.

With `Cc1c(COc2cc(OCc3cncc(C#N)c3)c(CNCCCC(=O)O)cc2Cl)cccc1-c1cccc(COc2cc(OCc3cncc(C#N)c3)c(CNCCCC(=O)O)cc2Cl)c1C` [Example 164, 4,4′-((((((2,2′-dimethyl-[1,1′-biphenyl]-3,3′-diyl)bis(methylene))bis(oxy))bis(5-chloro-2-((5-cyanopyridin-3-yl)methoxy)-4,1-phenylene))bis(methylene))bis(azanediyl))dibutyric acid], on PD-1/PD-L1, the IC50 is 0.2 nM. Further, the half-maximal effective concentration (EC50) at PD-1/PD-L1 interaction was 500 nM.

For the compound `COc1nc(OCc2cccc(-c3cccc(COc4ccc(CNCCO)c(OC)n4)c3Cl)c2Cl)ccc1CNCCO` [Example 186, 2,2′-((((((2,2′-Dichloro-[1,1′-biphenyl]-3,3′-diyl)bis(methylene))bis(oxy))bis(2-methoxypyridine-6,3-diyl))bis(methylene))bis(azanediyl))bis(ethan-1-ol)], the IC50 at PD-1/PD-L1 is 18.8 nM. In addition, on PD-1/PD-L1 interaction, the concentration for a half-maximal effect (EC50) was found to be 1510 nM.

Consider `COc1cc(OCc2cccc(-c3cccc(COc4cc(OCc5cncc(C#N)c5)c(CNC[C@@H](O)CC(=O)O)cc4Cl)c3C)c2C)c(Cl)cc1CNCC(=O)NS(C)(=O)=O` [Example 355, (S)-4-((5-chloro-4-((3′-((2-chloro-5-methoxy-4-(((2-(methylsulfonamido)-2-oxoethyl)amino)methyl)phenoxy)methyl)-2,2′-dimethyl-[1,1′-biphenyl]-3-yl)methoxy)-2-((5-cyanopyridin-3-yl)methoxy)benzyl)amino)-3-hydroxybutanoic acid], for which the half-maximal inhibitory concentration (IC50) at PD-1/PD-L1 is 0.148 nM. Moreover, the EC50 on PD-1/PD-L1 interaction was found to be 712 nM.

`Cc1c(COc2cc(OCc3cncc(C#N)c3)c(CNC[C@@H](O)CC(=O)O)cc2Cl)cccc1-c1cccc(-c2ccn3cc(CNC[C@@H](O)CC(=O)O)nc3c2)c1C` [Example 397, (S)-4-(((7-(3′-((4-((((S)-3-carboxy-2-hydroxypropyl)amino)methyl)-2-chloro-5-((5-cyanopyridin-3-yl)methoxy)phenoxy)methyl)-2,2′-dimethyl-[1,1′-biphenyl]-3-yl)imidazo[1,2-a]pyridin-2-yl)methyl)amino)-3-hydroxybutanoic acid]: the half-maximal inhibitory concentration (IC50) on PD-1/PD-L1 was determined as 0.064 nM. In addition, on PD-1/PD-L1 interaction, the EC50 is 709 nM.

As for `Cc1c(COc2nc(OCC3CC3)c(CNC[C@@H](O)CC(=O)O)cc2Br)cccc1-c1cccc(COc2nc(OCC3CC3)c(CNC[C@@H](O)CC(=O)O)cc2Br)c1C` [Example 141, (3S,3′S)-4,4′-((((((2,2′-dimethyl-[1,1′-biphenyl]-3,3′-diyl)bis(methylene))bis(oxy))bis(5-bromo-2-(cyclopropylmethoxy)pyridine-6,3-diyl))bis(methylene))bis(azanediyl))bis(3-hydroxybutanoic acid)], the 50% inhibitory concentration (IC50) at PD-1/PD-L1 was 3.6 nM. Further, the EC50 at PD-1/PD-L1 interaction was at least 50000 nM.

On to `Cc1c(COc2cc(OCc3cncc(C#N)c3)c(CNCCO)cc2Cl)cccc1-c1cccc(COc2cc(OCc3cncc(C#N)c3)c(CNC[C@@H](O)CC(=O)O)cc2Cl)c1C` [Example 207, (S)-4-((5-Chloro-4-((3′-((2-chloro-5-((5-cyanopyridin-3-yl)methoxy)-4-(((2-hydroxyethyl)amino)methyl)phenoxy)methyl)-2,2′-dimethyl-[1,1′-biphenyl]-3-yl)methoxy)-2-((5-cyanopyridin-3-yl)methoxy)benzyl)amino)-3-hydroxybutanoic acid], for which the IC50 on PD-1/PD-L1 turned out to be 2 nM. For the same compound, the EC50 at PD-1/PD-L1 interaction amounted to 1550 nM.

Regarding `Cc1c(COc2cc(OCc3cncc(C#N)c3)c(CNC[C@@H](O)CC(=O)O)cc2Cl)cccc1-c1cccc(-n2cc(CN)nn2)c1C` [Example 386, (S)-4-((4-((3′-(4-(aminomethyl)-1H-1,2,3-triazol-1-yl)-2,2′-dimethyl-[1,1′-biphenyl]-3-yl)methoxy)-5-chloro-2-((5-cyanopyridin-3-yl)methoxy)benzyl)amino)-3-hydroxybutanoic acid], on PD-1/PD-L1, the half-maximal inhibitory concentration (IC50) is 0.302 nM. For the same compound, at PD-1/PD-L1 interaction, the EC50 came to 868 nM.

With `COC1CN(C2CCc3cc(-c4cccc(-c5cccc(COc6cc(OCc7cncc(C#N)c7)c(CN[C@@](C)(CO)C(=O)O)cc6Cl)c5C)c4C)ccc32)C1` (some centres unmarked) [Example 585], the IC50 on PD-1/PD-L1 was determined as 0.098 nM. Also, on PD-1/PD-L1 interaction, the 50% effective concentration (EC50) came out at 182 nM.

For `O=C(O)C[C@H](O)CNCc1ccc(OC2CCc3c(-c4cccc5c4CCC5Oc4ccc(CNC[C@@H](O)CC(=O)O)cc4)cccc32)cc1` (some centres unmarked) [Example 681], the concentration for half-maximal inhibition (IC50) on PD-1/PD-L1 was 8.91 nM. The 50% effective concentration (EC50) at PD-1/PD-L1 interaction is at least 50000 nM.

As to `Cc1c(COc2cc(OCc3cncc(C#N)c3)c(CNC[C@@H](O)CC(=O)O)cc2Br)cccc1-c1cccc(COc2cc(OCc3cncc(C#N)c3)c(CNC[C@@H](O)CC(=O)O)cc2Br)c1C` [Example 33, (3S,3′S)-4,4′-((((((2,2′-dimethyl-[1,1′-biphenyl]-3,3′-diyl)bis(methylene))bis(oxy))bis(5-bromo-2-((5-cyanopyridin-3-yl)methoxy)-4,1-phenylene))bis(methylene))bis(azanediyl))bis(3-hydroxybutanoic acid)], at PD-1/PD-L1, the IC50 came to 0.4 nM. Besides, the half-maximal effective concentration (EC50) on PD-1/PD-L1 interaction was 322 nM.

For the compound `CS(=O)(=O)c1cncc(COc2nc(O[C@H]3CCc4c(-c5cccc6c5CC[C@@H]6Oc5nc(OCc6cncc(S(C)(=O)=O)c6)c(CNC[C@@H](O)CC(=O)O)cc5Cl)cccc43)c(Cl)cc2CNC[C@@H](O)CC(=O)O)c1` [Example 694], the IC50 on PD-1/PD-L1 is 0.051 nM. The concentration for a half-maximal effect (EC50) at PD-1/PD-L1 interaction worked out at 96 nM.

Consider `Cc1c(COc2cc(OCc3cncc(C(N)=O)c3)c(CNC[C@@H](O)CC(=O)O)cc2Cl)cccc1-c1cccc(COc2cc(OCc3cncc(C(N)=O)c3)c(CNC[C@@H](O)CC(=O)O)cc2Cl)c1C` [Example 222, (3S,3′S)-4,4′-((((((2,2′-dimethyl-[1,1′-biphenyl]-3,3′-diyl)bis(methylene))bis(oxy))bis(2-((5-carbamoylpyridin-3-yl)methoxy)-5-chloro-4,1-phenylene))bis(methylene))bis(azanediyl))bis(3-hydroxybutanoic acid)], for which the IC50 on PD-1/PD-L1 came out at 0.3 nM. For the same compound, the concentration for a half-maximal effect (EC50) on PD-1/PD-L1 interaction worked out at 856 nM.

With `Cc1c(COc2cc(OCc3cncc(C#N)c3)c(CN[C@@](C)(CO)C(=O)O)cc2Cl)cccc1-c1cccc(-c2ccc3c(c2)CC[C@H]3N(C)C)c1C` [Example 378, (S)-2-((5-chloro-2-((5-cyanopyridin-3-yl)methoxy)-4-((3′-((R)-1-(dimethylamino)-2,3-dihydro-1H-inden-5-yl)-2,2′-dimethyl-[1,1′-biphenyl]-3-yl)methoxy)benzyl)amino)-3-hydroxy-2-methylpropanoic acid], the IC50 on PD-1/PD-L1 worked out at 0.127 nM. The EC50 at PD-1/PD-L1 interaction is 191 nM.

For the compound `COc1nc(OCc2cccc(-c3cccc(COc4ccc(CNC[C@@H](O)CC(=O)O)c(OC)n4)c3C)c2C)ccc1CNC[C@@H](O)CC(=O)O` [Example 19, (3S,3′S)-4,4′-((((((2,2′-dimethyl-[1,1′-biphenyl]-3,3′-diyl)bis(methylene))bis(oxy))bis(2-methoxypyridine-6,3-diyl))bis(methylene))bis(azanediyl))bis(3-hydroxybutanoic acid)], the IC50 on PD-1/PD-L1 amounted to 1.1 nM. Also, the concentration giving a half-maximal response (EC50) at PD-1/PD-L1 interaction stood at 5140 nM.

In the case of `Cc1c(COc2cc(OCc3cccc(C#N)n3)c(CNC[C@@H](O)CC(=O)O)cc2Cl)cccc1-c1cccc(COc2cc(OCc3cccc(C#N)n3)c(CNC[C@@H](O)CC(=O)O)cc2Cl)c1C` [Example 221, (3S,3′S)-4,4′-((((((2,2′-dimethyl-[1,1′-biphenyl]-3,3′-diyl)bis(methylene))bis(oxy))bis(5-chloro-2-((6-cyanopyridin-2-yl)methoxy)-4,1-phenylene))bis(methylene))bis(azanediyl))bis(3-hydroxybutanoic acid)], at PD-1/PD-L1, the 50% inhibitory concentration (IC50) was found to be 1.5 nM. Moreover, the EC50 on PD-1/PD-L1 interaction was 274 nM.

Consider `Cc1c(-c2ccc(OCCNC[C@@H](O)CC(=O)O)cc2)cccc1-c1cccc2c1CC[C@@H]2Oc1nc(OCc2cncc(C#N)c2)c(CNC[C@@H](O)CC(=O)O)cc1Br` [Example 676], for which the half-maximal inhibitory concentration (IC50) on PD-1/PD-L1 was 0.064 nM. Moreover, at PD-1/PD-L1 interaction, the half-maximal effective concentration (EC50) amounted to 62 nM.

Take `Cc1c(COc2cc(OCc3cncc(C#N)c3)c(CNC[C@@H](O)CC(=O)O)cc2Br)cccc1-c1cccc(COc2cc(OCc3cncc(C#N)c3)c(CN3C[C@@H](O)CC3=O)cc2Br)c1C` [Example 38, (S)-4-((5-bromo-4-((3′-((2-bromo-5-((5-cyanopyridin-3-yl)methoxy)-4-(((S)-4-hydroxy-2-oxopyrrolidin-1-yl)methyl)phenoxy)methyl)-2,2′-dimethyl-[1,1′-biphenyl]-3-yl)methoxy)-2-((5-cyanopyridin-3-yl)methoxy)benzyl)amino)-3-hydroxybutanoic acid]: on PD-1/PD-L1, the IC50 came to 2.8 nM. Moreover, the EC50 at PD-1/PD-L1 interaction was 2670 nM.

Turning to `Cc1c(-c2ccc(OCCNC[C@@H](O)CC(=O)O)cc2)cccc1-c1cccc2c1CC[C@@H]2Oc1nc(OCCCC#N)c(CNC[C@@H](O)CC(=O)O)cc1Br` [Example 327, (S)-4-((2-((3′-((S)-1-((3-bromo-5-((((S)-3-carboxy-2-hydroxypropyl)amino)methyl)-6-(3-cyanopropoxy)pyridin-2-yl)oxy)-2,3-dihydro-1H-inden-4-yl)-2′-methyl-[1,1′-biphenyl]-4-yl)oxy)ethyl)amino)-3-hydroxybutanoic acid], on PD-1/PD-L1, the half-inhibitory concentration (IC50) was 0.051 nM. Further, on PD-1/PD-L1 interaction, the EC50 amounted to 114 nM.
